Patent publication US8697403B2, “Process and microorganisms for production of lipids from lignocellulosic wastes or residues” (Neste Oil Oyj, priority 2010, dated 2014)

Test system: strain G009
Assay: Lipase inhibition test: prevention of TAG degradation in cultivation of strain G009
Format: cell-based, Streptomyces albus
Details: G009, waste medium
Procedure: Also g/l values of TAGs were estimated by image analysis using Image J program. The standard curve was prepared using concentration scale from 1 g/l up to 40 g/l and the titre of lipids in the culture broth was measured against the standard curve. The whole culture broth (solid stage cultivations) or separated mycelia was extracted with an equal volume of chloroform-methanol (Clf-MeOH; 2:1). Tubes were incubated in a shaker at RT for 1 hour. After centrifugation sample was taken from the extract and analysed by TLC and/or by GC. Dry extract weight was determined by drying 1-5 ml of extract at RT for one day in air blow after which mass was determined by weighing. The mass was given as grams per 1 liter of the culture broth. The spores of the strain […] were cultivated in the medium containing the following raw materials in 1 L of tap water, pH 7: Dextrose 75 20 g, Bagasse 20 g, Biowaste from bakery and garden (1:1) 5 or 10 g, Algae 25 to 50 g, MgSO4.7 H2O 1 g, KH2PO4 1 g and CaCO3 3 g. The cultivation conditions were 28° C., 300 rpm for 11 days. After 6 days of cultivations, 0.05 g/l AgNO3 or 0.4% of TritonX100 solution containing 0.05 g/l of CaCO3. The flasks without the said supplements were considered as controls for lipase inhibition treatment study. Cultivation was continued in the same conditions for 5 days more. The samples were taken after 7, 8 and 11 days of cultivations according to the general sampling protocols used in this invention and the results of sampling are shown here. The parallel cultivations were done with two concentrations of both algae debris and biowaste and the upper row of each test condition gave a result with higher concentration of both waste fractions.

[1] = supplement added after 6 days, sample 11 day

O=[N+]([O-])[O-].[Ag+] [AgNO3]
Weight of Chloroform extract (g/l), 7 day (28° C., 300 rpm, supplement added after 6 days (0.05 g/l AgNO3 or 0.4% TritonX100 solution containing 0.05 g/l CaCO3), sample 7 day): 7.7 g/L
Quantity of TAGs g/l by Image J, 7 day (supplement added after 6 days, sample 7 day): 4.8 g/L
Quantity of TAGs g/l by Image J, 8 day (supplement added after 6 days, sample 8 day): 4.8 g/L
Quantity of TAGs g/l by Image J, 11 day [1]: 4.8 g/L
Weight of Chloroform extract (g/l), 11 day [1]: 8.5 g/L
